In patent US20110039783A1, “PEPTIDE HAVING HYPOTENSIVE ACTIVITY” (DAIICHI SANKYO COMPANY LIMITED, priority 2007, published 2011):
Where no end group is shown, it is not given here.

System: blood pressure of anesthetized Sprague-Dawley IGS male rats
Test: Hypotensive activity in anesthetized rats, invasive blood pressure measurement after intravenous administration
Format: in vivo, rat
Settings: for Hypotensive activity (dose/rat) 10 nmol / Hypotensive activity (dose/rat) 30 nmol / Hypotensive activity (dose/rat) 100 nmol: anesthetized rats, intravenous; for Hypotensive activity (dose/rat) 10 nmol: 10 nmol/rat; for Hypotensive activity (dose/rat) 30 nmol: 30 nmol/rat; for Hypotensive activity (dose/rat) 100 nmol: 100 nmol/rat; for dose dependence of hypotensive activity: anesthetized rats, 10, 30, 100 nmol/rat
Procedure: 50 mg/kg pentobarbital sodium was intraperitoneally administered to 8- to 10-week-old Sprague-Dawley IGS male rats (Charles River Laboratories Japan, Inc.) for anesthesia. Thereafter, a tracheal cannula (PE 250), a femoral vein cannula (PE50), and a femoral artery cannula (PESO) were inserted into each rat. The femoral artery cannula was connected with a pressure transducer (PE23XL; manufactured by Nihon Kohden Corporation), and an apparatus formed by incorporating a blood pressure measurement unit (AP-641G; manufactured by Nihon Kohden Corporation) and an instantaneous heart rate measurement unit (AT-601G; manufactured by Nihon Kohden Corporation) into a multi-purpose preamplifier (RP-6004; manufactured by Nihon Kohden Corporation) was used to record the blood pressure and heart rate of each rat. The blood pressure was calibrated using a mercury manometer included in a stand-type electromanometer (MP-25S; manufactured by Nihon Kohden Corporation). The recording paper was adjusted, such that 10 mm or 20 mm on the recording paper corresponded to 100 mmHg.
Each peptide was dissolved in a concentration of 1 mM or 10 mM in a 0.1% acetic acid solution to prepare a peptide solution. Thereafter, depending on dose, it was diluted with a normal saline containing 0.1% bovine serum albumin (Fr.V). In the case of the dose of 10 nmol/rat, a 1 mM peptide solution was 10 times diluted, and 100 μl of the diluted solution was administered. In the case of the dose of 30 nmol/rat, a 1 mM peptide solution was 10 times diluted, and 300 μL, of the diluted solution was administered. In the case of the dose of 100 nmol/rat, a 10 mM peptide solution was 10 times diluted, and 100 μL of the diluted solution was administered. Each peptide was intravenously administered via the femoral vein cannula, and the systolic blood pressure, diastolic blood pressure, and heart rate were then measured.
Various HC021 derivative peptides were synthesized in accordance with Example 1, and such peptide was then administered to each rat at a dose of 10 nmol/rat, 30 nmol/rat, or 100 mol/rat by the method described in Example 2. Thereafter, the hypotensive activity of each derivative peptide was measured. […] The strength of such activity was determined using a median of activity in repeated experiments. In addition, in order to make a comparison among the activities of various derivative peptides, the strength of hypotensive activity was defined as follows.
Strength of Hypotensive Activity
Extremely strong activity (+++): A decrease in systolic blood pressure is 30 mmHg or more, and the time required for recovery is 5 minutes or more.
Strong activity (++): A decrease in systolic blood pressure is 20 mmHg or more and less than 30 mmHg, or the time required for recovery is less than 5 minutes.
Activity observed (+): A decrease in systolic blood pressure is less than 20 mmHg.
Activity not observed (−)
Various HC021 peptide sequence-substituted products were synthesized in accordance with Example 1, and their hypotensive activity was then measured according to the method of Example 3.

Substance | Hypotensive activity (dose/rat) 10 nmol (Table 2) | Hypotensive activity (dose/rat) 30 nmol (Table 2) | Hypotensive activity (dose/rat) 100 nmol (Table 2) | also measured
LFFRRLQAYFKGRGLDLGTFPNPF [Compound 27] | +++ (Extremely strong activity (+++): A decrease in systolic blood pressure is 30 mmHg or more, and the time required for recovery is 5 minutes or more.) |  |  | 
LFFRRLQAYFKGRGLDLGTFPNPF-amide (LFFRRLQAYFKGRGLDLGTFPNPF-NH2) [Compound 28] | +++ (Extremely strong activity (+++): A decrease in systolic blood pressure is 30 mmHg or more, and the time required for recovery is 5 minutes or more.) |  |  | 
LFFRRLQAYFKGRGLDLGTFPNPFPTNENPR [Compound 29] | +++ (Extremely strong activity (+++): A decrease in systolic blood pressure is 30 mmHg or more, and the time required for recovery is 5 minutes or more.) |  |  | 
LFFRRLQAYFKGRGLDLGTFPNPFPTNENPR-amide [Compound 30] | +++ (Extremely strong activity (+++): A decrease in systolic blood pressure is 30 mmHg or more, and the time required for recovery is 5 minutes or more.) |  |  | Hypotensive activity (dose/rat) 10 nmol (Table 3): +++ (Extremely strong activity (+++): A decrease in systolic blood pressure is 30 mmHg or more, and the time required for recovery is 5 minutes or more.)
LFFRSLQAYFK-amide (LFFRSLQAYFK-NH2) [Compound 43] |  |  |  | Hypotensive activity (dose/rat) 10 nmol (Table 3): −; Hypotensive activity (dose/rat) 30 nmol (Table 3): ++ (Strong activity (++): A decrease in systolic blood pressure is 20 mmHg or more and less than 30 mmHg, or the time required for recovery is less than 5 minutes.)
NGATVRNEDKWKPLNNPRNRDLFFRRLQAYFK-amide [Compound 6] | − | + (Activity observed (+): A decrease in systolic blood pressure is less than 20 mmHg.) |  | 
NRDLFFRRLQAYAK-amide (NRDLFFRRLQAYAK-NH2) [Compound 42] |  |  |  | Hypotensive activity (dose/rat) 10 nmol (Table 3): −; Hypotensive activity (dose/rat) 30 nmol (Table 3): −; Hypotensive activity (dose/rat) 100 nmol (Table 3): ++ (Strong activity (++): A decrease in systolic blood pressure is 20 mmHg or more and less than 30 mmHg, or the time required for recovery is less than 5 minutes.)
NRDLFFRRLQAYFK (not fully specified (C-terminus)) [Compound 15] | − | − | + (Activity observed (+): A decrease in systolic blood pressure is less than 20 mmHg.) | 
NRDLFFRRLQAYFKG [Compound 11] | − | − | + (Activity observed (+): A decrease in systolic blood pressure is less than 20 mmHg.) | 
NRDLFFRRLQAYFKG-amide (NRDLFFRRLQAYFKG-NH2) [Compound 12] | − | ++ (Strong activity (++): A decrease in systolic blood pressure is 20 mmHg or more and less than 30 mmHg, or the time required for recovery is less than 5 minutes.) | +++ (Extremely strong activity (+++): A decrease in systolic blood pressure is 30 mmHg or more, and the time required for recovery is 5 minutes or more.) | dose dependence of hypotensive activity: enhanced their hypotensive activity in a dose-dependent manner
NRDLFFRRLQAYFKGR [Compound 13] |  | − | ++ (Strong activity (++): A decrease in systolic blood pressure is 20 mmHg or more and less than 30 mmHg, or the time required for recovery is less than 5 minutes.) | 
NRDLFFRRLQAYFKGR-amide (NRDLFFRRLQAYFKGR-NH2) [Compound 14] | + (Activity observed (+): A decrease in systolic blood pressure is less than 20 mmHg.) | ++ (Strong activity (++): A decrease in systolic blood pressure is 20 mmHg or more and less than 30 mmHg, or the time required for recovery is less than 5 minutes.) |  | dose dependence of hypotensive activity: enhanced their hypotensive activity in a dose-dependent manner
NRELFFRRLQAYFK-amide (NRELFFRRLQAYFK-NH2) [Compound 41] |  |  |  | Hypotensive activity (dose/rat) 10 nmol (Table 3): −; Hypotensive activity (dose/rat) 30 nmol (Table 3): ++ (Strong activity (++): A decrease in systolic blood pressure is 20 mmHg or more and less than 30 mmHg, or the time required for recovery is less than 5 minutes.)
RDLFFRRLQAYFK-amide (RDLFFRRLQAYFK-NH2) [Compound 16] | − | ++ (Strong activity (++): A decrease in systolic blood pressure is 20 mmHg or more and less than 30 mmHg, or the time required for recovery is less than 5 minutes.) | +++ (Extremely strong activity (+++): A decrease in systolic blood pressure is 30 mmHg or more, and the time required for recovery is 5 minutes or more.) | dose dependence of hypotensive activity: enhanced their hypotensive activity in a dose-dependent manner
RLQAYFK-amide (RLQAYFK-NH2) [Compound 23] |  | − | − | 
RRLQAYFK-amide (RRLQAYFK-NH2) [Compound 22] |  | − | − | 
VQQRKESKKPPAKLQPRNRDLFFRRLQAYFK-amide (VQQRKESKKPPAKLQPRNRDLFFRRLQAYFK-NH2) [Compound 40] |  |  |  | Hypotensive activity (dose/rat) 30 nmol (Table 3): ++ (Strong activity (++): A decrease in systolic blood pressure is 20 mmHg or more and less than 30 mmHg, or the time required for recovery is less than 5 minutes.)
acetyl-ATVRNEDKWKPLNNPRNRDLFFRRLQAYFK-amide [Compound 31] |  | +++ (Extremely strong activity (+++): A decrease in systolic blood pressure is 30 mmHg or more, and the time required for recovery is 5 minutes or more.) |  | 
acetyl-NRDLFFRRLQAYFK-amide (Ac-NRDLFFRRLQAYFK-NH2) [Compound 32] |  | ++ (Strong activity (++): A decrease in systolic blood pressure is 20 mmHg or more and less than 30 mmHg, or the time required for recovery is less than 5 minutes.) |  | 
pyr-EDKWKPLNNPRNRDLFFRRLQAYFK-amide (not fully specified; N-terminal pyroglutamate, C-terminal amide) [Compound 33] | ++ (Strong activity (++): A decrease in systolic blood pressure is 20 mmHg or more and less than 30 mmHg, or the time required for recovery is less than 5 minutes.) |  |  | 
